“Also recorded” adds a separate entry of the source.
Experiments:
[1] = tested on: transcriptional condensates at SMAD7; assay: IR-GFP and SMAD7 intronic RNA FISH colocalization in HepG2 cells; type: cell-based, human
SMAD7 = SMAD7 transcript levels (RNA-seq, RT-qPCR) in HepG2 cells; type: cell-based, human
Description: RNA was extracted using TRIzol™ reagent following the manufacturer's instructions (Thermo Fisher Scientific, 15596026). cDNA synthesis was performed using qScript cDNA Supermix according to the manufacturer's instructions, using 1000 ng RNA as input (qScript cDNA SuperMix, QuantaBio—95048-500). qPCR was performed on a Thermo Fisher Scientific QuantStudio 6 machine using Fast SYBR™ Green Master Mix (Thermo Fisher Scientific 4385618). Expression data is presented after calculating the relative expression compared with the housekeeping gene RPLP0, using the equation Relative Quantification (RQ)=100/(2^(Target Gene Ct−RPLP0Ct). When data is reported relative to a sample condition, the condition of reference was set as 1 and the data of the other conditions were reported as a ratio (condition/condition of reference).
RNA sequencing was performed by the Whitehead Institute Genome Technology Core. Libraries were prepared using the KAPA HyperPrep stranded RNA kit following manufacturer's instructions. Samples were sequenced on a HiSeq2500 in High-Output mode generating 50 bases, single-end reads.
RNA-sequencing (RNA-seq) bioinformatics analysis was performed on the Whitehead High-Performance Computing Facility using the nf-core RNA-seq pipeline v1.4.2 (81) with Nextflow v20.04.1. Quality control of .fastq files was performed with FastQC v0.11.8. The reads were single-end and the strandedness was set to reverse. Low quality sequences were trimmed using Trim Galore!v0.6.4. Alignment was performed against the hg19 genome assembly using STAR v2.6.1d (85) and duplicates were marked using Picard MarkDuplicates v2.21.1. Quantification of transcripts using featureCounts v1.6.4 (86). Differential expression analysis was performed using edgeR v3.26.5 (87). deepTools v3.3.1 (88), dupRadar v1.14.0 (89), Qualimap v.2.2.2-dev (90), and MultiQC v1.7 were used for quality control. ERCC92 was used as RNA spike-in.

IR puncta = assay: Immunofluorescence for IR in human primary adipocytes; type: cell-based; conditions: for IR incorporation into puncta: 3 nM insulin 5 minutes
Description: Primary pre-adipocytes from (ATCC, PCS-210-010) were cultured in Fibroblast Growth Kit-Low Serum (ATCC PCS-201-041), as per manufacturer's instructions. Cells for experiments were dissociated and plated at 18,000 cells/cm2. Two days later pre-adipocytes were differentiated in adipocyte differentiation media (ATCC PCS-500-050), as per manufacturer's instructions. Briefly, cells were washed and medium was replaced with adipocyte differentiation initiation medium. After 48 hours, half the medium was replaced. At day 4, medium was changed to adipocyte differentiation maintenance medium, and replaced every three days. At day 12, cells were rinsed and incubated in DMEM (Thermo Fisher, 11885084) with 0.1 or 3 nM of insulin for 5 days, replacing medium every other day. In the last 24 hours, 12.5 μM metformin was added. On day 17, cells were prepared for the assays by rinsing, and 30 minutes of washing. Afterwards, for imaging, cells were exposed to 3 nM insulin for 5 minutes, rinsed with PBS and fixed in 4% PFA for 15 minutes at room temperature. For pAKT ELISAs cells were exposed to 3 nM insulin for 15 minutes and harvested in cell lysis buffer (Cell Signaling Technology, #9803) with phosphatase inhibitor (Thermo Fisher Scientific, 78442).
For adipocytes, following differentiation, cells were cultured with EMEM for 2 days and with EMEM containing either physiological (0.1 nM) or pathological (3 nM) concentrations of insulin for 2 days. Cells were then cultured with EMEM containing either physiological (0.1 nM) or pathological (3 nM) of insulin or with pathological (3 nM) concentrations of insulin and 12.5 μM of metformin for 1 day. Cells were then washed with EMEM and acutely stimulated with or without 3 nM insulin for 5 minutes prior to cell collection for immunofluorescence or ELISA.
HepG2 cells, human liver spheroids, human primary adipocytes and human tissue liver sections were fixed in 4% PFA (VWR, BT140770-10X10) in PBS (Life Technologies, AM9625) for 10 minutes at room temperature. […]

[2] = insulin resistant cells, acute insulin stimulation

Row | Compound | levels of IR in transcriptional condensates at SMAD7 [1, 2] | colocalization of IR-containing condensates with SMAD7 nascent RNA ([1]; insulin sensitive cells, 0 nM versus 3 nM insulin) | SMAD7 gene expression (SMAD7; [2]) | SMAD7 expression (SMAD7; insulin sensitive cells, before and after insulin stimulation (RNA-seq)) | IR incorporation into puncta (IR puncta; insulin-resistant adipocytes) | IR incorporation into puncta (IR puncta; insulin-sensitive adipocytes) | IR levels in SMAD7 transcriptional condensates ([1]; metformin-treated insulin resistant cells, 3 nM insulin 5 min (FIG. 5D)) | SMAD7 gene expression (SMAD7; metformin-treated insulin resistant cells) | IR incorporation into puncta (IR signal) (IR puncta; insulin-resistant adipocytes, 12.5 μM metformin 1 day, 3 nM insulin 5 min)
1 | insulin: insulin (Sigma Aldrich, I9278-5ML) used for acute stimulation and chronic physiological or pathological exposure | did not increase the levels of IR in transcriptional condensates; also recorded: did not cause increased levels of IR in transcriptional condensates | increased colocalization | nor did it cause upregulation of SMAD7 gene expression; also recorded: nor did it upregulate SMAD7 gene expression | upregulated | less able to promote further IR incorporation into puncta | promoted further IR incorporation into these puncta | – | – | –
2 | CN(C)C(=N)N=C(N)N [metformin, reference compound] | – | – | – | – | – | – | increased | elevated | reversed

Source: patent US20250186379A1, “METHODS AND AGENTS FOR DECREASING INSULIN RESISTANCE” (Whitehead Institute for Biomedical Research, priority 2021, published 2025)
